Assay [1] concerns the target p53 Y220C (Homo sapiens, UniProt P04637, Y220C). Kind of assay: Luciferase Reporter Assay (Luc), p53 response element, NClH1299 cells with inducible p53 Y220C. It is filed as cell-based. The conditions noted are these: luciferase reporter, NClH1299 inducible p53 Y220C, 6 hour; for AC50: read-out: Luc P53 Y220C AC50. The method, boiled down: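 Doxycycline (0.5 ug/mL, 24 h) induces the mutant before a 6-hour compound treatment. Reporter activity is then quantified by One-Glo luminescence.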

Assay [2] relates to H1299 p53 Y220C. As to the kind of experiment: Cell Proliferation Assay (CellTiter-Glo, CTG), H1299 p53 Y220C (NClH1299-inducible p53 Y220C). The conditions noted are these: Homo sapiens, NCI-H1299, 120 h, NClH1299-inducible p53 Y220C cells, 5 days, CellTiter-Glo. The format is cell-based. The method, boiled down: (§1)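 NClH1299 lines stably transduced with Tet-inducible p53 Y220C or R273H, plus NUGC3, were treated with compound for 5 days at 250-500 cells/well. IC50 derived from CellTiter-Glo luminescent signal after 10 min room-temperature incubation.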

The target in assay [3] is T1, p53 Y220C mutant protein (amino acid residues 94-293) (Homo sapiens, UniProt P04637, Y220C).
T1 construct: p53 Y220C mutant protein (amino acid residues 94-293)
As to the kind of experiment: Surface Plasmon Resonance (SPR) assay, Kd_kinetic. The conditions noted are these: read-out: SPR P53 Y220C KD kinetic. The format is binding. The essentials:
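Temperature held at 16 or 20 °C during Biacore 8K runs. Buffer: 50 mM Tris, pH 7.5, 100 mM NaCl, 1 mM DTT, 0.01% Brij35, 0.05% Tween-20, 1% DMSO.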

In assay [4] the test system is NUGC3 p53 Y220C. Kind of assay: Cell Proliferation Assay (CellTiter-Glo, CTG), NUGC3 p53 Y220C. It is filed as cell-based. The conditions noted are these: Homo sapiens, NUGC-3, 120 h, NUGC3 cells, 5 days, CellTiter-Glo. The essentials: as §1
The test system of assay [5] is H1299 p53 R273H. Kind of assay: Cell Proliferation Assay (CellTiter-Glo, CTG), H1299 p53 R273H (NClH1299-inducible p53 R273H). The conditions noted are these: Homo sapiens, NCI-H1299, 120 h, NClH1299-inducible p53 R273H cells, 5 days, CellTiter-Glo. It is filed as cell-based. The method, boiled down: as §1

Where two headings read alike, the source gives them in different places. A value given as a limit tells only on which side of the number the result lay.

T1 sequence (P04637 94-293, stated change not applied): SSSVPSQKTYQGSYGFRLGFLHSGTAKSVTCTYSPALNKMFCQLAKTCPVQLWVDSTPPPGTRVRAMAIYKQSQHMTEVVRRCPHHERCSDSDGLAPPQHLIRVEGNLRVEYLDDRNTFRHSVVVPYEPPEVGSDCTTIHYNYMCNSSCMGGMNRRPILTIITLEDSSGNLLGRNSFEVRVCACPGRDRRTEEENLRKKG

Consider `CN1CC[C@@H](Nc2cccn3c(SC(F)(F)F)c(C#CCNc4ccc(C(=O)NC[C@@H](O)CO)cc4)cc23)[C@@H](F)C1` [Example 384], for which, in assay [1], the AC50 was below 750 nM. In assay [1], this molecule displayed an Emax above 90%. Also, the IC50 in assay [2] was below 750 nM; in assay [4], below 750 nM; in assay [5] it was at least 10000 nM. Moreover, in assay [3] (SPR, p53 Y220C), the Kd is below 10 nM.
For the molecule `CN1CC[C@@H](Nc2cccn3c(SC(F)(F)F)c(C#CCNc4ccc(P(C)(C)=O)cc4)cc23)[C@@H](F)C1` [Example 385], the AC50 in assay [1] was below 750 nM. In assay [1], this molecule yielded an Emax of 80 to 90%. The IC50 in assay [2] was below 750 nM; in assay [4], below 750 nM; in assay [5], at least 10000 nM. Also, the Kd in assay [3] (SPR, p53 Y220C) was below 10 nM.
`CNC(=O)c1ccc(NCC#Cc2cc3c(N[C@@H]4CN(C)C[C@@H]4F)cccn3c2SC(F)(F)F)c(OC)c1` [Example 386]: the AC50 in assay [1] was below 750 nM. The Emax in assay [1] was above 90%. Also, the IC50 in assay [2] was below 750 nM; in assay [4], below 750 nM; in assay [5], at least 10000 nM. Besides, the equilibrium dissociation constant (Kd) in assay [3] (SPR, p53 Y220C) was below 10 nM.
Take `COc1cc(C(=O)NCC2(O)CC2)ccc1NCC#Cc1cc2c(N[C@@H]3CCNC[C@@H]3F)cccn2c1SC(F)(F)F` [Example 387]: in assay [1], the AC50 is below 750 nM. The molecule further registered an Emax in assay [1] of 80 to 90%. Moreover, the results for the IC50 in assay [2], in assay [4] and in assay [5] were below 750 nM, below 750 nM and 5000 to 8000 nM, respectively. Further, the Kd in assay [3] (SPR, p53 Y220C) was below 10 nM.
For the molecule `CN1CCO[C@H](CNC(=O)c2ccc(NCC#Cc3cc4c(N[C@@H]5CCN(C)C[C@@H]5F)cccn4c3SC(F)(F)F)cc2)C1` [Example 388], the AC50 in assay [1] was below 750 nM. In assay [1], the Emax lay in the range of 80 to 90%. Also, the IC50 in assay [2] was below 750 nM; in assay [4] it was below 750 nM; in assay [5], 5000 to 8000 nM. In addition, the Kd in assay [3] (SPR, p53 Y220C) is below 10 nM.
As to `CN1CC[C@H](Nc2cccn3c(SC(F)(F)F)c(C#CCNc4ccc(P(C)(C)=O)c5scnc45)cc23)[C@H](F)C1` [Example 389, 7-(dimethylphosphoryl)-N-[3-(8-{[(3R,4S)-3-fluoro-1-methylpiperidin-4-yl]amino}-3-[(trifluoromethyl)sulfanyl]indolizin-2-yl)prop-2-yn-1-yl]-1,3-benzothiazol-4-amine; formic acid], the AC50 in assay [1] is below 750 nM. For the same molecule, in assay [1], the Emax is above 90%. Besides, the IC50 in assay [2] is below 750 nM; in assay [4] it was below 750 nM; in assay [5], 8000 to 10000 nM. The Kd in assay [3] was below 10 nM.
For the molecule `COc1nc(P(C)(C)=O)ccc1NCC#Cc1cc2c(N[C@@H]3CCN(C)C[C@@H]3F)cccn2c1SC(F)(F)F` [Example 390], in assay [1], the AC50 is below 750 nM. Also, the Emax in assay [1] is above 90%. In addition, the IC50 in assay [2] was below 750 nM; in assay [4], below 750 nM; in assay [5] it was 5000 to 8000 nM. Besides, in assay [3] (SPR, p53 Y220C), the Kd was below 10 nM.
For the molecule `O=C(N[C@H]1C[C@@H](O)C1)c1ccc(NCC#Cc2cc3c(N[C@@H]4CCNC[C@@H]4F)cccn3c2SC(F)(F)F)cc1` [Example 391], the AC50 in assay [1] is below 750 nM. In assay [1], the Emax fell in the range of 80 to 90%. In addition, the IC50 in assay [2] was below 750 nM; in assay [4], below 750 nM; in assay [5] it was at least 10000 nM. Also, in assay [3] (SPR, p53 Y220C), the Kd is below 10 nM.
`CNC(=O)c1ccc(NCC#Cc2cc3c(N[C@@H]4CNC[C@@H]4F)cccn3c2SC(F)(F)F)c(OC)c1` [Example 392]: in assay [1], the AC50 is below 750 nM. In assay [1], this molecule yielded an Emax of 80 to 90%. Further, the IC50 is below 750 nM in assay [2], below 750 nM in assay [4] and at least 10000 nM in assay [5]. In assay [3] (SPR, p53 Y220C), the Kd is below 10 nM.
Turning to `CNC(=O)c1ccc(OC)c(NCC#Cc2cn3c(N[C@@H]4CCN(C)C[C@@H]4F)cccc3c2SC(F)(F)F)c1` [Example 393], in assay [1], the AC50 was below 750 nM. Further, in assay [1], the Emax is above 90%. The IC50 is below 750 nM in assay [2], below 750 nM in assay [4] and 5000 to 8000 nM in assay [5]. The Kd in assay [3] (SPR, p53 Y220C) is below 10 nM.
For the molecule `COc1cc(S(C)(=O)=O)ccc1NCC#Cc1cc2c(N[C@@H]3CCNC[C@@H]3F)cccn2c1SC(F)F` [Example 394], the AC50 in assay [1] is below 750 nM. The Emax in assay [1] is above 90%. Also, the values for the IC50 in assay [2], in assay [4] and in assay [5] were below 750 nM, below 750 nM and 5000 to 8000 nM, respectively. In addition, in assay [3] (SPR, p53 Y220C), the Kd is below 10 nM.
As to `CN1CC[C@@H](Nc2cccn3c(SC(F)(F)F)c(C#CCNc4ccc(C(=O)N5CC(C)(O)C5)cc4)cc23)[C@@H](F)C1` [Example 395], the AC50 in assay [1] was below 750 nM. The molecule also yielded an Emax in assay [1] above 90%. For the same molecule, the IC50 in assay [2] is below 750 nM; in assay [4], below 750 nM; in assay [5], 5000 to 8000 nM. Further, in assay [3] (SPR, p53 Y220C), the Kd was below 10 nM.
Consider `C[C@H](NC(=O)c1ccc(NCC#Cc2cc3c(N[C@@H]4CCN(C)C[C@@H]4F)cccn3c2SC(F)(F)F)cc1)[C@@H](C)O` [Example 396], for which the AC50 in assay [1] is below 750 nM. This molecule showed an Emax in assay [1] above 90%. Moreover, the IC50 in assay [2] is below 750 nM; in assay [4], below 750 nM; in assay [5] it was 8000 to 10000 nM. Besides, in assay [3] (SPR, p53 Y220C), the Kd is below 10 nM.
For `C[C@@H](O)CNC(=O)c1ccc(NCC#Cc2cc3c(N[C@@H]4CCNC[C@@H]4F)cccn3c2SC(F)(F)F)cc1` [Example 397], the AC50 in assay [1] was below 750 nM. This molecule had an Emax in assay [1] above 90%. The results for the IC50 in assay [2], in assay [4] and in assay [5] were below 750 nM, below 750 nM and 5000 to 8000 nM, respectively. For the same molecule, in assay [3] (SPR, p53 Y220C), the Kd is below 10 nM.
For the molecule `COc1cc2c(cc1NCC#Cc1cc3c(N[C@@H]4CCN(C)C[C@@H]4F)cccn3c1SC(F)(F)F)CNC2=O` [Example 399], in assay [1], the AC50 is below 750 nM. In assay [1], this molecule yielded an Emax above 90%. The IC50 was below 750 nM in assay [2], below 750 nM in assay [4] and 5000 to 8000 nM in assay [5]. In assay [3] (SPR, p53 Y220C), the Kd was below 10 nM.
In the case of `COc1cc(P(C)(C)=O)cnc1NCC#Cc1cc2c(N[C@@H]3CCN(C)C[C@@H]3F)cccn2c1SC(F)(F)F` [Example 402, 2-(3-{[5-(dimethylphosphoryl)-3-methoxypyridin-2-yl]amino}prop-1-yn-1-yl)-N-[(3S,4R)-3-fluoro-1-methylpiperidin-4-yl]-3-[(trifluoromethyl)sulfanyl]indolizin-8-amine], in assay [1], the AC50 is below 750 nM. Besides, in assay [1], the Emax lay in the range of 80 to 90%. Moreover, the IC50 in assay [2] is below 750 nM; in assay [4], below 750 nM; in assay [5] it was at least 10000 nM. For the same molecule, the Kd in assay [3] (SPR, p53 Y220C) was below 10 nM.
As to `C[C@H](O)CNC(=O)c1ccc(NCC#Cc2cc3c(N[C@@H]4CCNC[C@@H]4F)cccn3c2SC(F)(F)F)cc1` [Example 403], in assay [1], the AC50 was below 750 nM. In assay [1], the Emax was above 90%. The results for the IC50 in assay [2], in assay [4] and in assay [5] were below 750 nM, below 750 nM and at least 10000 nM, respectively. For the same molecule, the Kd in assay [3] (SPR, p53 Y220C) was below 10 nM.
For `COc1ccc(C(=O)NC[C@H](C)O)cc1NCC#Cc1cc2c(N[C@@H]3CCN(C)C[C@@H]3F)cccn2c1SC(F)(F)F` [Example 404], the AC50 in assay [1] was below 750 nM. Moreover, the Emax in assay [1] was above 90%. Also, the values for the 50% inhibitory concentration (IC50) in assay [2], in assay [4] and in assay [5] were below 750 nM, below 750 nM and 8000 to 10000 nM, respectively. Moreover, the Kd in assay [3] (SPR, p53 Y220C) was below 10 nM.
For `CNC(=O)c1ccc(NCC#Cc2cc3c(N[C@@H]4CCN(C)C[C@@H]4F)cccn3c2SC(F)(F)F)c(OC2COC2)c1` [Example 405], the concentration at half-maximal activity (AC50) in assay [1] is below 750 nM. For the same molecule, in assay [1], the Emax was above 90%. The IC50 in assay [2] is below 750 nM; in assay [4], below 750 nM; in assay [5], at least 10000 nM. The Kd in assay [3] (SPR, p53 Y220C) was below 10 nM.
As for `COc1cc(C(=O)N2CC(C)(O)C2)ccc1NCC#Cc1cc2c(N[C@@H]3CCNC[C@@H]3F)cccn2c1SC(F)(F)F` [Example 406, 1-(4-{[3-(8-{[(3S,4R)-3-fluoropiperidin-4-yl]amino}-3-[(trifluoromethyl)sulfanyl]indolizin-2-yl)prop-2-yn-1-yl]amino}-3-methoxybenzoyl)-3-methylazetidin-3-ol], in assay [1], the AC50 is below 750 nM. The Emax in assay [1] was in the range of 80 to 90%. Moreover, the IC50 is below 750 nM in assay [2], below 750 nM in assay [4] and 5000 to 8000 nM in assay [5]. Also, in assay [3] (SPR, p53 Y220C), the Kd was below 10 nM.
Consider `CN1CC[C@@H](Nc2cccn3c(SC(F)(F)F)c(C#CCNc4ccc(C(=O)NC[C@H]5COCCO5)cc4)cc23)[C@@H](F)C1` [Example 407], for which the AC50 in assay [1] is below 750 nM. In assay [1], this molecule registered an Emax above 90%. For the same molecule, the IC50 in assay [2] is below 750 nM; in assay [4] it was below 750 nM; in assay [5], 5000 to 8000 nM. In assay [3] (SPR, p53 Y220C), the Kd is below 10 nM.

The values above are taken from patent publication US20260374766A1, “METHODS FOR TREATING CANCER” (Antares Therapeutics, Inc., priority 2022, published 2026).
